Assay results reported in patent US20240238317A1, “METHODS FOR REDUCING INTRAOCULAR PRESSURE” (UNIVERSITY OF MISSISSIPPI, priority 2021, published 2024).
Several values for one entry are separate records, joined by “and”; a condition that tells them apart may be missing. Equal entries are not always repeated.

Key:
[1] = tested on: IOP; settings: topical application; cited from earlier work
[2] = tested on: IOP in test eye of DB rabbits; experiment: Combination dose multiple day application study: IOP lowering after topical co-administration of two formulations (second 15 minutes after first)
[3] = tested on: IOP in test eye of DB rabbits; experiment: Single treatment multiple day application study: IOP lowering after topical administration of one formulation (QD, 5 days); type: in vivo, pigmented (Dutch Belted; DB) rabbits; parameters: Test eye IOP: unit not given here; settings: for Drop in IOP: test eye
Source text: The rabbits were split into three groups.
The IOP profile following multi-day (QD, 5 days) exposure to a single formulation, in pigmented DB rabbits, is presented in FIGS. 1-26.

[4] = Average of days 1, 3, 5, 30 min
[5] = Average of days 1, 3, 5, 60 min
[6] = Average of days 1, 3, 5, 90 min
[7] = Average of days 1, 3, 5, 120 min
[8] = Average of days 1, 3, 5, 150 min
[9] = Average of days 1, 3, 5, 180 min
[10] = Average of days 1, 3, 5, 240 min
[11] = Average of days 1, 3, 5, 300 min
[12] = Average of days 1, 3, 5, 360 min
[13] = Average of days 1, 3, 5, 420 min
[14] = Average of days 1, 3, 5, 480 min
[15] = Average of days 1, 3, 5, 540 min
[16] = Average of days 1, 3, 5, 1440 min

## CCCCCc1cc(O)c2c(c1)OC(C)(C)[C@@H]1CCC(C)=C[C@@H]21 [THC, Delta-9-tetrahydrocannabinol]
[1]
  effect on IOP: no effect on IOP

## CC(C)OC(=O)CCC/C=C\C[C@@H]1[C@@H](CC[C@@H](O)CCc2ccccc2)[C@H](O)C[C@@H]1O [Latanoprost]
[2]
  comparison of IOP lowering of combinations with single treatments: decreased the efficacy of both THC-VHS-NEC and Rhopressa® when combined
[3]; Average of days 1, 3, 5, 0 min
  Test eye IOP: 24.6
  Drop in IOP: 0.0%
[3]; [4]
  Test eye IOP: 20.1
  Drop in IOP: −18.3%
[3]; [5]
  Test eye IOP: 19.6
  Drop in IOP: −20.3%
[3]; [6]
  Test eye IOP: 19.5
  Drop in IOP: −20.5%
[3]; [7]
  Test eye IOP: 19.7
  Drop in IOP: −19.8%
[3]; [8]
  Test eye IOP: 19.6
  Drop in IOP: −20.5%
[3]; [9]
  Test eye IOP: 20.0
  Drop in IOP: −18.7%
[3]; [10]
  Test eye IOP: 19.5
  Drop in IOP: −20.6%
[3]; [11]
  Test eye IOP: 19.7
  Drop in IOP: −21.7%
[3]; [12]
  Test eye IOP: 19.9
  Drop in IOP: −19.1%
[3]; [13]
  Test eye IOP: 21.0
  Drop in IOP: −14.5%
[3]; [14]
  Test eye IOP: 23.9
  Drop in IOP: −2.9%
[3]; [15]
  Test eye IOP: 24.8
  Drop in IOP: 0.7%
[3]; [16]
  Test eye IOP: 24.4
  Drop in IOP: −2.2%
[3]; Day 1, 0 min
  Test eye IOP: 25.2
  Drop in IOP: 0.0%
[3]; Day 1, 30 min
  Test eye IOP: 20.0
  Drop in IOP: −20.5%
[3]; Day 1, 60 min
  Test eye IOP: 19.6
  Drop in IOP: −21.9%
[3]; Day 1, 90 min
  Test eye IOP: 19.2
  Drop in IOP: −23.7%
[3]; Day 1, 120 min
  Test eye IOP: 19.8
  Drop in IOP: −21.3%
[3]; Day 1, 150 min
  Test eye IOP: 19.4
  Drop in IOP: −22.9%
[3]; Day 1, 180 min
  Test eye IOP: 20.2
  Drop in IOP: −19.7%
[3]; Day 1, 240 min
  Test eye IOP: 19.7
  Drop in IOP: −21.8%
[3]; Day 1, 300 min
  Test eye IOP: 19.7
  Drop in IOP: −21.7%
[3]; Day 1, 360 min
  Test eye IOP: 19.7
  Drop in IOP: −21.7%
[3]; Day 1, 420 min
  Test eye IOP: 20.9
  Drop in IOP: −16.8%
[3]; Day 1, 480 min
  Test eye IOP: 23.8
  Drop in IOP: −5.4%
[3]; Day 1, 540 min
  Test eye IOP: 25.2
  Drop in IOP: 0.3%
[3]; Day 1, 1440 min
  Test eye IOP: 24.4
  Drop in IOP: −3.0%
[3]; Day 3, 0 min
  Test eye IOP: 24.6
  Drop in IOP: 0.0%
[3]; Day 3, 30 min
  Test eye IOP: 19.8
  Drop in IOP: −19.4%
[3]; Day 3, 60 min
  Test eye IOP: 19.5
  Drop in IOP: −20.7%
[3]; Day 3, 90 min
  Test eye IOP: 19.8
  Drop in IOP: −19.6%
[3]; Day 3, 120 min
  Test eye IOP: 19.6
  Drop in IOP: −20.3%
[3]; Day 3, 150 min
  Test eye IOP: 19.6
  Drop in IOP: −20.3%
[3]; Day 3, 180 min
  Test eye IOP: 20.0
  Drop in IOP: −18.7%
[3]; Day 3, 240 min
  Test eye IOP: 19.6
  Drop in IOP: −20.5%
[3]; Day 3, 360 min
  Test eye IOP: 19.6
  Drop in IOP: −20.3%
[3]; Day 3, 420 min
  Test eye IOP: 21.0
  Drop in IOP: −14.7%
[3]; Day 3, 480 min
  Test eye IOP: 23.7
  Drop in IOP: −3.6%
[3]; Day 3, 540 min
  Test eye IOP: 24.5
  Drop in IOP: −0.4%
[3]; Day 3, 1440 min
  Test eye IOP: 24.2
  Drop in IOP: −3.6%
[3]; Day 5, 0 min
  Test eye IOP: 24.1
  Drop in IOP: 0.0%
[3]; Day 5, 30 min
  Test eye IOP: 20.4
  Drop in IOP: −15.2%
[3]; Day 5, 60 min
  Test eye IOP: 19.7
  Drop in IOP: −18.2%
[3]; Day 5, 90 min
  Test eye IOP: 19.7
  Drop in IOP: −18.2%
[3]; Day 5, 120 min
  Test eye IOP: 19.8
  Drop in IOP: −17.8%
[3]; Day 5, 150 min
  Test eye IOP: 19.7
  Drop in IOP: −18.2%
[3]; Day 5, 180 min
  Test eye IOP: 19.8
  Drop in IOP: −17.5%
[3]; Day 5, 240 min
  Test eye IOP: 19.3
  Drop in IOP: −19.6%
[3]; Day 5, 360 min
  Test eye IOP: 20.3
  Drop in IOP: −15.4%
[3]; Day 5, 420 min
  Test eye IOP: 21.2
  Drop in IOP: −12.0%
[3]; Day 5, 480 min
  Test eye IOP: 24.1
  Drop in IOP: 0.3%
[3]; Day 5, 540 min
  Test eye IOP: 24.6
  Drop in IOP: 2.1%
[3]; Day 5, 1440 min
  Test eye IOP: 24.7
  Drop in IOP: 0.0%
[3]; single formulation
  IOP returned to baseline (time): ≤ 480 min
[3]; single formulation, QD, 5 days
  average max drop in IOP: about 21.3+2.1%
[3]; single formulation, Day 1
  Max IOP drop (%): −23.7%
  Max IOP drop (mmHg): 6.0 mmHg and 6 mmHg
  Time of max IOP drop (%): 90 min
  Time of max IOP drop (mmHg): 90 min
[3]; single formulation, Day 3
  Max IOP drop (%): −20.7%
  Max IOP drop (mmHg): 5.1 mmHg
  Time of max IOP drop (%): 60 min
  Time of max IOP drop (mmHg): 60 min
[3]; single formulation, Day 5
  Max IOP drop (%): −19.6%
  Max IOP drop (mmHg): 4.7 mmHg
  Time of max IOP drop (%): 240 min
  Time of max IOP drop (mmHg): 240 min
[3]; single formulation, day 1
  time to max drop in IOP: 60 min
[3]; single formulation, day 3
  time to max drop in IOP: 90 min
[3]; single formulation, day 5
  time to max drop in IOP: 240 min
[3]; single formulation, from 30 to 420 mins
  maintained average drop in IOP: 19.4 ± 1.9%
